{"source": "patent US7534782B2", "about": "“Crystal of 1-methylcarbapenem solvate” (Sankyo Company, Limited, priority 2003, dated 2009)", "key": {"[1]": {"test": "storage stability of the crystalline forms", "assay_type": "physicochemical"}, "[2]": {"tested_on": "Gram-negative bacterial strains and Gram-positive bacterial strains", "settings": "cited from earlier work"}}, "note": "Where two headings read alike, the source gives them in different places."}
{"compound": "C[C@@H](O)[C@H]1C(=O)N2C(C(=O)O)=C(S[C@H]3C[C@@H](C(=O)N4CC[C@H](NC(=O)CNC(=N)N)C4)N(C)C3)[C@H](C)[C@H]12", "note": "[Crystalline form (I-1), (1R,5S,6S)-2-[(2S,4S)-2-[(3S)-3-(2-Guanidinoacetylamino)pyrrolidin-1-ylcarbonyl]-1-methylpyrrolidin-4-ylthio]-6-[(1R)-1-hydroxyethyl]-1-methyl-1-carbapen-2-em-3-carboxylic acid ethanolate]", "values": [{"measurement": "storage stability under dry conditions", "setting": "[1]; dry conditions", "value": "improved storage stability"}]}
{"compound": "C[C@@H](O)[C@H]1C(=O)N2C(C(=O)O)=C(S[C@H]3C[C@@H](C(=O)N4CC[C@H](NC(=O)CNC(=N)N)C4)N(C)C3)[C@H](C)[C@H]12", "note": "[Crystalline form (I-2), (1R,5S,6S)-2-[(2S,4S)-2-[(3S)-3-(2-Guanidinoacetylamino)pyrrolidin-1-ylcarbonyl]-1-methylpyrrolidin-4-ylthio]-6-[(1R)-1-hydroxyethyl]-1-methyl-1-carbapen-2-em-3-carboxylic acid tetrahydrate]", "values": [{"measurement": "stability during storage under conditions of normal or high humidity", "setting": "[1]", "value": "stable during storage"}]}
{"compound": "C[C@@H](O)[C@H]1C(=O)N2C(C(=O)O)=C(S[C@H]3C[C@@H](C(=O)N4CC[C@H](NC(=O)CNC(=N)N)C4)N(C)C3)[C@H](C)[C@H]12", "note": "[Crystalline form (I-3), (1R,5S,6S)-2-[(2S,4S)-2-[(3S)-3-(2-Guanidinoacetylamino)pyrrolidin-1-ylcarbonyl]-1-methylpyrrolidin-4-ylthio]-6-[(1R)-1-hydroxyethyl]-1-methyl-1-carbapen-2-em-3-carboxylic acid ethanolate trihydrate]", "values": [{"measurement": "stability during storage under conditions of normal or high humidity", "setting": "[1]; trihydrate", "value": "remains stable during storage"}]}
{"compound": "C[C@@H](O)[C@H]1C(=O)N2C(C(=O)O)=C(S[C@H]3C[C@@H](C(=O)N4CC[C@H](NC(=O)CNC(=N)N)C4)N(C)C3)[C@H](C)[C@H]12", "note": "[compound (I), (1R,5S,6S)-2-[(2S,4S)-2-[(3S)-3-(2-guanidinoacetylamino)pyrrolidin-1-ylcarbonyl]-1-methylpyrrolidin-4-ylthio]-6-[(1R)-1-hydroxyethyl]-1-methyl-1-carbapen-2-em-3-carboxylic acid]", "values": [{"measurement": "antibiotic activity", "setting": "[2]", "value": "excellent antibiotic activity"}, {"measurement": "antibiotic activity", "setting": "[2]; listed as 1-methylcarbapenem compound of formula (I)", "value": "potent antibiotic activity"}]}
